SMILES strings stand for the structures. pIC50: −log10 of the molar value.

The term pIC50 denotes −log10 of the IC50, conventionally taken in molar units.

For the first test, the target named is T1, recombinant human secreted phospholipase A2 (Homo sapiens, UniProt P14555).
T1 sequence (P14555 21-144): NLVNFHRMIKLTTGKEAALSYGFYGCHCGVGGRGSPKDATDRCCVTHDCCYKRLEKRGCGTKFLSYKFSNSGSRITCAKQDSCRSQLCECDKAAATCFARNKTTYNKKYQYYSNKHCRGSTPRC
Description: Human Recombinant hnp-sPLA2 Chromogenic Assay.
Conditions: not given
The test is classed as biochemical. The source says: The following chromogenic assay procedure was used to identify and evaluate inhibitors of recombinant human secreted phospholipase A2.The assay described herein has been adapted for high volume screening using 96 well microtiter plates. A general description of this assay method is found in the article, “Analysis of Human Synovial Fluid Phospholipase A2 on Short Chain Phosphatidylcholine-Mixed Micelles: Development of a Spectrophotometric Assay Suitable for a Microtiterplate Reader”, by Laure J. Reynolds, Lori L. Hughes, and Edward A Dennis, Analytical Biochemistry, 204, pp. 190-197, 1992 (the disclosure of which is incorporated herein by reference): Reagents:
Bovine Serum Albumin (fatty acid free) (1 g/L)
(Sigma A-7030, product of Sigma Chemical Co. St. Louis Mo., USA) […]
pH 7.5 (adjust with NaOH)
Adjust pH to 4.5 with acetic acid
DTNB—5,5′-dithiobis-2-nitrobenzoic acid
Racemic Diheptanoyl Thio-PC racemic 1,2-bis(heptanoylthio)-1,2-dideoxy-sn-glycero-3-phosphorylcholine TRITON X-100™ prepare at 6.249 mg/ml in reaction buffer to equal […].
A measured volume of racemic dipheptanoyl thio PC supplied in chloroform at a concentration of 100 mg/ml is taken to dryness and redissolved in 10 millimolar TRITON X-100™ nonionic detergent aqueous solution.
Reaction Buffer is added to the solution, then DTNB to give the Reaction Mixture.
The reaction mixture thus obtained contains lmM diheptanoly thio-PC substrate, 0.29 mm Triton X-100™ detergent, and 0.12 mm DTMB in a buffered aqueous solution at pH 7.5.
1. Add 0.2 ml reaction mixture to all wells;
2. Add 10 ul test compound (or solvent blank) to appropriate wells, mix 20 seconds;
3. Add 50 nanograms of sPLA2 (10 microliters) to appropriate wells;
4. Incubate plate at 40° C. for 30 minutes;
5. Read absorbance of wells at 405 nanometers with an automatic plate reader.
All compounds were tested in triplicate. Typically, compounds were tested at a final concentration of 5 ug/ml. […] Lack of color development at 405 nanometers evidenced inhibition. Compounds initially found to be active were reassayed to confirm their activity and, if sufficiently active, IC50 values were determined. […] In all cases, % inhibition measured at 405 nanometers generated by enzyme reactions containing inhibitors relative to the uninhibited control reactions was determined. Each sample was titrated in triplicate and result values were averaged for plotting and calculation of IC50 values. IC50 were determined by plotting log concentration versus inhibition values in the range from 10-90% inhibition.
`CCc1c(C(=O)C(N)=O)c2c(OCC(=O)O)nc(C)nc2n1Cc1ccccc1` [—H|—CH3|phenyl, [[2-methyl-5-(aminooxoacetyl)-6-ethyl-7-(phenylmethyl)-7H-pyrrolo[2,3-d]pyrimidin-4-yl]oxy]acetic Acid]: the pIC50 is 7.06.

Take `CCc1c(C(=O)C(N)=O)c2c(OCC(=O)O)ncnc2n1Cc1cccc(Cl)c1` [—H|—H|m-Cl-phenyl, [[5-(aminooxoacetyl)-6-ethyl-7-[(3-chlorophenyl)methyl]-7H-pyrrolo[2,3-d]pyrimidin-4-yl]oxy]acetic acid]: the pIC50 is 7.04.

Consider `CCc1c(C(=O)C(N)=O)c2c(OCC(=O)O)ncnc2n1Cc1cccc(F)c1` [—H|—H|m-F-phenyl, [[5-(aminooxoacetyl)-6-ethyl-7-[(3-fluorophenyl)methyl]-7H-pyrrolo[2,3-d]pyrimidin-4-yl]oxy]acetic acid], for which the pIC50 is 7.01.

As for `CCc1c(C(=O)C(N)=O)c2c(OCC(=O)O)ncnc2n1Cc1ccccc1` [—H|—H|phenyl, [[5-(aminooxoacetyl)-6-ethyl-7-(phenylmethyl)-7H-pyrrolo[2,3-d]pyrimidin-4-yl]oxy]acetic acid], the pIC50 was 7.32.

Regarding `CCc1c(C(=O)C(N)=O)c2c(OCC(=O)O)nc(OC)nc2n1Cc1ccccc1` [—H|—O—CH3|phenyl, [[2-methoxy-5-(aminooxoacetyl)-6-ethyl-7-(phenylmethyl)-7H-pyrrolo[2,3-d]pyrimidin-4-yl]oxy]acetic acid], the pIC50 is 7.34.

On to `CCc1c(C(=O)C(N)=O)c2c(OCC(=O)O)nc(SC)nc2n1Cc1cccc(C(F)(F)F)c1` [—H|—S-methyl|m-CF3-phenyl, [[2-(methylthio)-5-(aminooxoacetyl)-6-ethyl-7-[[3-(trifluoromethyl)phenyl]methyl]-7H-pyrrolo[2,3-d]pyrimidin-4-yl]oxy]acetic acid], for which the pIC50 is 7.89.

In the case of `CCc1c(C(=O)C(N)=O)c2c(OCC(=O)O)nc(SC)nc2n1Cc1cccc(Cl)c1` [—H|—S-methyl|m-Cl-phenyl, [[2-(methylthio)-5-(aminooxoacetyl)-6-ethyl-7-[(3-chlorophenyl)methyl]-7H-pyrrolo[2,3-d]pyrimidin-4-yl]oxy]acetic acid], the pIC50 is 7.72.

With `CCc1c(C(=O)C(N)=O)c2c(OCC(=O)O)nc(SC)nc2n1Cc1cccc(F)c1` [—H|—S-methyl|m-F-phenyl, [[2-(methylthio)-5-(aminooxoacetyl)-6-ethyl-7-[(3-fluorophenyl)methyl]-7H-pyrrolo[2,3-d]pyrimidin-4-yl]oxy]acetic acid], the pIC50 was 7.80.

For `CCc1c(C(=O)C(N)=O)c2c(OCC(=O)O)nc(SC)nc2n1Cc1ccccc1-c1ccccc1` [—H|—S-methyl|o-phenyl-phenyl, [[2-(methylthio)-5-(aminooxoacetyl)-6-ethyl-7-([1,1′-biphenyl]-2-ylmethyl)-7H-pyrrolo[2,3-d]pyrimidin-4-yl]oxy]acetic acid], the pIC50 was 8.05.

With `CCc1c(C(=O)C(N)=O)c2c(OCC(=O)O)nc(Sc3ccccc3)nc2n1Cc1ccccc1` [—H|—S-phenyl|phenyl, [[2-(phenylthio)-5-(aminooxoacetyl)-6-ethyl-7-(phenylmethyl)-7H-pyrrolo[2,3-d]pyrimidin-4-yl]oxy]acetic acid], the pIC50 was 7.96.

`CCc1c(C(=O)C(N)=O)c2c(OCC(=O)O)nc(SC)nc2n1Cc1ccccc1` [—H|—SCH3|phenyl, [[2-(methylthio)-5-(aminooxoacetyl)-6-ethyl-7-(phenylmethyl)-7H-pyrrolo[2,3-d]pyrimidin-4-yl]oxy]acetic acid]: the negative logarithm of the IC50 (pIC50) was 7.72.

The same test, now with this note: chromogenic assay, diheptanoyl thio-PC substrate, pH 7.5, 40° C. for 30 minutes, absorbance at 405 nm; average of n = 3-4; read-out: IC50 (micro-molar) n = 3 − 4 (ave).
Turning to `CCc1c(C(=O)C(N)=O)c2c(OCC(=O)OC)nc(C)nc2n1Cc1ccccc1` [—CH3|—CH3|phenyl, [[2-methyl-5-(aminooxoacetyl)-6-ethyl-7-(phenylmethyl)-7H-pyrrolo[2,3-d]pyrimidin-4-yl]oxy]acetic acid methyl ester], the pIC50 is 5.33.

As to `CCc1c(C(=O)C(N)=O)c2c(OCC(=O)OC)ncnc2n1Cc1ccccc1` [—CH3|—H|phenyl, [[5-(aminooxoacetyl)-6-ethyl-7-(phenylmethyl)-7H-pyrrolo[2,3-d]pyrimidin-4-yl]oxy]acetic acid methyl ester], the pIC50 is 5.26.

Regarding `CCc1c(C(=O)C(N)=O)c2c(OCC(=O)O)ncnc2n1Cc1cccc(C(F)(F)F)c1` [—H|—H|m-CF3-phenyl, [[5-(aminooxoacetyl)-6-ethyl-7-[[3-(trifluoromethyl)phenyl]methyl]-7H-pyrrolo[2,3-d]pyrimidin-4-yl]oxy]acetic acid], the pIC50 was 6.91.

`CCc1c(C(=O)C(N)=O)c2c(OCC(=O)O)ncnc2n1Cc1ccccc1-c1ccccc1` [—H|—H|o-phenyl-phenyl, [[5-(aminooxoacetyl)-6-ethyl-7-([1,1′-biphenyl]-2-ylmethyl)-7H-pyrrolo[2,3-d]pyrimidin-4-yl]oxy]acetic acid]: the pIC50 was 6.94.

For the origin of these results see patent US6384041B1, “Bicyclic sPLA2 inhibitors” (Eli Lilly and Company, priority 1998, dated 2002).
